Measured values reported in ChEMBL document CHEMBL1147091, “Prevalence of plasmid-mediated quinolone resistance determinants QnrA, QnrB, and QnrS among clinical isolates of Enterobacter cloacae in a Taiwanese hospital” (2007).
≈ marks a conversion by molar mass, not a printed value. Calls of active or inactive are those of the source. The calls are words filed in the database; no cut-off is given here.

What was measured:
Escherichia coli [1] = assay: Decrease in susceptibility of qnrS-positive transconjugant streptomycin-resistant Escherichia coli C600; type: functional
Enterobacter cloacae [2] = assay: Susceptibility of qnr positive Enterobacter cloacae assessed as percentage nonsusceptible isolates; type: functional
Enterobacter cloacae [3] = assay: Susceptibility of metallo beta lactamase and extended spectrum beta lactamase deficient qnr positive Enterobacter cloacae assessed as percentage nonsusceptible isolates; type: functional
Enterobacter cloacae [4] = assay: Susceptibility of qnr positive Enterobacter cloacae producing IMP8 and/or SHV12 assessed as percentage nonsusceptible isolates
Escherichia coli [5] = assay: Decrease in susceptibility of qnrB-positive transconjugant streptomycin-resistant Escherichia coli C600; type: functional
Enterobacter cloacae [6] = assay: Susceptibility of qnr positive Enterobacter cloacae; type: functional

SMILES	Activity (Escherichia coli [1])	Activity (Enterobacter cloacae [2]) [%]	other results
CC(=O)OCC1=C(C(=O)O)N2C(=O)[C@@H](NC(=O)Cc3cccs3)[C@H]2SC1	inactive		
CC1(C)S[C@@H]2[C@H](NC(=O)[C@H](N)c3ccccc3)C(=O)N2[C@H]1C(=O)O	inactive		
NCC[C@H](O)C(=O)N[C@@H]1C[C@H](N)[C@@H](O[C@H]2O[C@H](CN)[C@@H](O)[C@H](O)[C@H]2O)[C@H](O)[C@H]1O[C@H]1O[C@H](CO)[C@@H](O)[C@H](N)[C@H]1O [AMIKACIN]		3.5	
CO/N=C(\C(=O)N[C@@H]1C(=O)N2C(C(=O)O)=C(COC(C)=O)CS[C@H]12)c1csc(N)n1 [CEFOTAXIME]		97.8	
CC(C)(O/N=C(\C(=O)N[C@@H]1C(=O)N2C(C(=O)[O-])=C(C[n+]3ccccc3)CS[C@H]12)c1csc(N)n1)C(=O)O [CEFTAZIDIME]		86	Activity (Enterobacter cloacae [3]): 29.4%; Activity (Enterobacter cloacae [4]): 100%
O=C(O)c1cn(C2CC2)c2cc(N3CCNCC3)c(F)cc2c1=O [CIPROFLOXACIN]	0.25 µg/mL		
C[C@@H](O)[C@H]1C(=O)N2C(C(=O)O)=C(SCCNC=N)C[C@H]12 [IMIPENEM ANHYDROUS]		9.3	
CCn1cc(C(=O)O)c(=O)c2ccc(C)nc21 [NALIDIXIC ACID]		100	MIC (Escherichia coli [1]; Escherichia coli, C600): 16 µg/mL (≈ 68.9 µM); MIC (Escherichia coli [5]): 16 µg/mL (≈ 68.9 µM); MIC90 (Enterobacter cloacae [6]): > 256 µg/mL
